Each block holds one compound with its values, some of them ahead of it.
How the values were obtained:
Format in all cases: biochemical
[1] = target: T1, MAPKAPK2 (Homo sapiens, UniProt P49137); experiment: Z'-Lyte FRET kinase assay (Invitrogen), MAPKAPK2; details: read-out: IC50, activity toward kinase MAPKAPK2
T1 construct: purchased Invitrogen (assay run by Invitrogen)
In short: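 Inhibition was inferred from protease cleavage of non-phosphorylated peptide, measured as a coumarin/fluorescein ratio. Kinase reactions used 10 μM ATP for 1 h at room temperature.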

[2] = target: Csk (Homo sapiens, UniProt P41240); experiment: AlphaScreen kinase assay, Csk; details: read-out: IC50, activity toward kinase Csk
Source text: (§1) AlphaScreen assay was used to screen additional kinases. The assay is similarly dependent on the phosphorylation of a peptide substrate. In this assay, an antibody that recognizes phosphorylated substrate is bound to an acceptor bead. The peptide substrate is attached to biotin, which binds to a donor head that contains streptavidin. Thus phosphorylated substrate is bound by antibody and streptavidin, bringing the donor and acceptor heads into close proximity when kinase is not inhibited. The donor produces singlet oxygen which results in emission from the acceptor when they are in close proximity. Conversely, when kinase is inhibited, the donor and acceptor beads are not associated and the emission from the acceptor is reduced.
(§2) AlphaScreen assays were done using compounds dissolved in DMSO to a concentration of 20 mM. The compounds were diluted accordingly to the desired final concentrations in each sample well, using 1:3 serial dilution for a total of 8 concentration points.

[3] = target: Brk (Homo sapiens, UniProt Q13882); experiment: AlphaScreen kinase assay, Brk; details: read-out: IC50, activity toward kinase Brk
Brk, sequence (Q13882 whole entry): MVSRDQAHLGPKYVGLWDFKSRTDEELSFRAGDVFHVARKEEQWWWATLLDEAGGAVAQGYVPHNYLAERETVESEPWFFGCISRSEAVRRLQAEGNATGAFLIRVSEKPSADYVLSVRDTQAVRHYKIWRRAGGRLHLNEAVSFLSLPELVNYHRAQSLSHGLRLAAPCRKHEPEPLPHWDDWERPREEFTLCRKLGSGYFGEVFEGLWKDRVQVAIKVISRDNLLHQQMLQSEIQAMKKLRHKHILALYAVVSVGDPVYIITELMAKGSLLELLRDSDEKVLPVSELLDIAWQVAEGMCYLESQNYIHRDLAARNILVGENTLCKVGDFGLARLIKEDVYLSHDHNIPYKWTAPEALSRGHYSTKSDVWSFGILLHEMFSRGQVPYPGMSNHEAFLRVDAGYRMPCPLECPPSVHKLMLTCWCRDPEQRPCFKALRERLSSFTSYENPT
In short: (§3)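 Uses phospho-specific antibody on acceptor beads plus streptavidin donor beads capturing biotinylated peptide substrate; singlet oxygen from donor excites nearby acceptor. Inhibitors tested in 8-point, 1:3 titrations starting from 20 mM DMSO solutions.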

[4] = target: T2, Flt3 (Homo sapiens, UniProt P36888); experiment: Z'-Lyte FRET kinase assay (Invitrogen), Flt3; details: read-out: IC50, activity toward kinase Flt3
T2 construct: purchased Invitrogen (assay run by Invitrogen)
T2 sequence (P36888 27-993): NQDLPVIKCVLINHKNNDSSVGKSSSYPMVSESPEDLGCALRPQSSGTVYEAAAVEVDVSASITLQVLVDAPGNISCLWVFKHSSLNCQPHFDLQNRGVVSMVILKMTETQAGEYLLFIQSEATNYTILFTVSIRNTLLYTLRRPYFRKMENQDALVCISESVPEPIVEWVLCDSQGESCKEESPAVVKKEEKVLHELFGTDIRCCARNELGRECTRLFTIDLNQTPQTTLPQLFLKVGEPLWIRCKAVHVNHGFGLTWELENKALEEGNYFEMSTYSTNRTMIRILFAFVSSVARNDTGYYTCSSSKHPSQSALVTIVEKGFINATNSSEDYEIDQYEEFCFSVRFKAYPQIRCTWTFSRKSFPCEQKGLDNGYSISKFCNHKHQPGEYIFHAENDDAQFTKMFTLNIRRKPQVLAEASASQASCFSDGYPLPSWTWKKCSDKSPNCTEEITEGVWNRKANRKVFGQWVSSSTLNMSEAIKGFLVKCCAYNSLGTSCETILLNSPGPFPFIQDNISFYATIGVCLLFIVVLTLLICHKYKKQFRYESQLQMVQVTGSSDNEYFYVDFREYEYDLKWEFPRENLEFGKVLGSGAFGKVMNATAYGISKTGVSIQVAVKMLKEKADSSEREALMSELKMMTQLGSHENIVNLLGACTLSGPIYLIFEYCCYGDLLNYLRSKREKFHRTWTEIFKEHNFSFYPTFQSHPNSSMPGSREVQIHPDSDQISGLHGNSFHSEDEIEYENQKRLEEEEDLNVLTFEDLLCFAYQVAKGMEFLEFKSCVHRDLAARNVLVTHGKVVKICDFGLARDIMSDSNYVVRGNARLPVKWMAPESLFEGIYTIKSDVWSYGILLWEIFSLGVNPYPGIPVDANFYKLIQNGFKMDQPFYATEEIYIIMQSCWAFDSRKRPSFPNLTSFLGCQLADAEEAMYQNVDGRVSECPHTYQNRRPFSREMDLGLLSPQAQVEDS
Source text: The effect of potential modulators of kinase activity can be measured in a variety of different assays known in the art. For example, direct radiometric, indirect FRET or AlphaScreen assays may be used to assess the level of phosphorylation of a substrate in the presence of test compounds in order to determine the inhibitory affect of the compound on the kinase. Invitrogen (Carlsbad, Calif.) uses a FRET based assay for Btk, EGFR, EphB2, Flt3, lrak4, Kdr, MAP2K1, MAPKAPK2, PDGFRB, PKC theta, Stk6 and Yes. For these assays, compounds of the invention were screened by Invitrogen using Z′-Lyte™ kinase assay.
Briefly, the Invitrogen kinase assay involves use of a specific peptide substrate optimized for each kinase, containing a fluorophore at each end that make up the FRET pair. The peptide sensitivity to proteolytic cleavage depends on phosphorylation of the peptide. Non-phosphorylated peptide is cleaved by a protease while peptide phosphorylated by the kinase is not cleaved. Cleavage of the peptide disrupts the FRET between the donor (coumarin) and acceptor (fluorescein) fluorophores, resulting in an increase in the ratio of donor emission to acceptor emission. The emission ratio of coumarin to fluorescein is used to assess the reaction progress. The extent of phosphorylation is determined from the emission ratio, which is low when the kinase is active (phosphorylated peptide is not cleaved, FRET pair connected) or higher for inhibited kinase (non-phosphorylated peptide is cleaved, FRET pair separated). Thus, the assay involves a kinase reaction in the presence of varying concentrations of a given compound, a development reaction with site specific protease, and detection of the fluorescent emission ratio of coumarin and fluorscein. […] Reaction conditions for each kinase are determined to provide optimal reaction times, incubation temperature, kinase and ATP concentrations. Test samples are made up in 1× kinase buffer (50 mM HEPES pH 7.5, 50 mM MgCl2, 5 mM EGTA, 0.05% BRIJ-35) and compound at desired concentration prepared in DMSO such that the final DMSO is 1%. […] Typically, assay plates are prepared to 10 μl final volume per sample, adding 2.5 μl of compound at 4× the desired concentration in 4% DMSO (serial dilution of compound provides concentration curve), 5 μl of the desired kinase mixed with Z′-LYTE™ peptide substrate (2× in 2× kinase buffer, final peptide at 2 μM), and 2.5 μl of 4×ATP solution. All kinase except for MAP2K1 were at 10 μM ATP in the kinase reaction, while MAP2K1 was at 100 μM. Samples are mixed and the kinase reaction is incubated 1 hour at room temperature, after which 5 μl of development solution is added and mixed. After incubation for another 1 hour at room temperature, 5 μl of stop reagent is added to each sample and mixed. The fluorescence signals are measured to determine the emission ratio.

[5] = target: ALK (Homo sapiens, UniProt Q9UM73); experiment: AlphaScreen kinase assay, ALK; details: read-out: IC50, activity toward kinase ALK
ALK, sequence (Q9UM73 19-1620): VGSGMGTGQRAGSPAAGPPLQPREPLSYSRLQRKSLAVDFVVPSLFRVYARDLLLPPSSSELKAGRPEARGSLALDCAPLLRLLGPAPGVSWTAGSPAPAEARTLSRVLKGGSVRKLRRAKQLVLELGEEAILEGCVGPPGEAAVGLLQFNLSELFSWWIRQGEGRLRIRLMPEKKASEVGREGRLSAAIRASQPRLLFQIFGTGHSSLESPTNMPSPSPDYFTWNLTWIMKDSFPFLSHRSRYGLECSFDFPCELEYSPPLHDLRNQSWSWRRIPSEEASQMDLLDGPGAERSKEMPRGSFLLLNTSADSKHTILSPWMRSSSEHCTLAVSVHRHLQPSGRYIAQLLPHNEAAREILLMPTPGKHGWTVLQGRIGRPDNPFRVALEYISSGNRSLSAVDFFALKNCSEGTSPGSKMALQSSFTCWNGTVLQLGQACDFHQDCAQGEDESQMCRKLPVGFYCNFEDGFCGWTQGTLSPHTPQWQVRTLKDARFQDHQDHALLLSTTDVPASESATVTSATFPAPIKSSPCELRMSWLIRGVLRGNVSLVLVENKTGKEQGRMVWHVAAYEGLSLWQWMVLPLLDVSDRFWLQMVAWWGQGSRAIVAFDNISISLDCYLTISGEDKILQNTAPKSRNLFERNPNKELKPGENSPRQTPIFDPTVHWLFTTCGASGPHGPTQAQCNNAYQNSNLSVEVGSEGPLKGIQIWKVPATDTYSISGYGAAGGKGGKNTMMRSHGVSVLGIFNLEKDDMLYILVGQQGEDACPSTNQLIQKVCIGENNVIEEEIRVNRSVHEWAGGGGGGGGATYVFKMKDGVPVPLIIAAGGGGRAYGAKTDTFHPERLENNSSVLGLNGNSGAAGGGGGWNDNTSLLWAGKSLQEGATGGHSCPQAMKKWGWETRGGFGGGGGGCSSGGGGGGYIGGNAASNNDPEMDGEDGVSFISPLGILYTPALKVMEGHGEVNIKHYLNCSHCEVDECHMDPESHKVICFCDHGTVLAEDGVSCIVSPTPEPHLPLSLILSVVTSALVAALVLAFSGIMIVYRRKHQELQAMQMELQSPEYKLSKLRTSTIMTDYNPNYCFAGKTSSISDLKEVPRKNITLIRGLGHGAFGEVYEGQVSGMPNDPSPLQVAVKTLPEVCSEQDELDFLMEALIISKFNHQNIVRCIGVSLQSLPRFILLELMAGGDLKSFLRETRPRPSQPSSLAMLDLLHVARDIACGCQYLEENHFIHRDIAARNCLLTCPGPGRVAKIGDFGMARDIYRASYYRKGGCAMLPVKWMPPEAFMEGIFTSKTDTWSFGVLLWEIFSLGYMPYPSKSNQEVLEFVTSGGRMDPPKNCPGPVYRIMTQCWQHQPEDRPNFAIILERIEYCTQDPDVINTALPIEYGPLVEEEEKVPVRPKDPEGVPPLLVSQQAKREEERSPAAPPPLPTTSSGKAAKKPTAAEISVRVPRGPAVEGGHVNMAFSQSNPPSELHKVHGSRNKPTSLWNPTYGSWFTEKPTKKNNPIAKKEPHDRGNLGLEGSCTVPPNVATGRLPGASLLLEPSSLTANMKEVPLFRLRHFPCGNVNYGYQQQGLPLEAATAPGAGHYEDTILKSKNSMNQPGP
Source text: as §1, §2

[6] = target: Tie2 (Homo sapiens, UniProt Q02763); experiment: AlphaScreen kinase assay, Tie2; details: read-out: IC50, activity toward kinase Tie2
Tie2, sequence (Q02763 23-1124): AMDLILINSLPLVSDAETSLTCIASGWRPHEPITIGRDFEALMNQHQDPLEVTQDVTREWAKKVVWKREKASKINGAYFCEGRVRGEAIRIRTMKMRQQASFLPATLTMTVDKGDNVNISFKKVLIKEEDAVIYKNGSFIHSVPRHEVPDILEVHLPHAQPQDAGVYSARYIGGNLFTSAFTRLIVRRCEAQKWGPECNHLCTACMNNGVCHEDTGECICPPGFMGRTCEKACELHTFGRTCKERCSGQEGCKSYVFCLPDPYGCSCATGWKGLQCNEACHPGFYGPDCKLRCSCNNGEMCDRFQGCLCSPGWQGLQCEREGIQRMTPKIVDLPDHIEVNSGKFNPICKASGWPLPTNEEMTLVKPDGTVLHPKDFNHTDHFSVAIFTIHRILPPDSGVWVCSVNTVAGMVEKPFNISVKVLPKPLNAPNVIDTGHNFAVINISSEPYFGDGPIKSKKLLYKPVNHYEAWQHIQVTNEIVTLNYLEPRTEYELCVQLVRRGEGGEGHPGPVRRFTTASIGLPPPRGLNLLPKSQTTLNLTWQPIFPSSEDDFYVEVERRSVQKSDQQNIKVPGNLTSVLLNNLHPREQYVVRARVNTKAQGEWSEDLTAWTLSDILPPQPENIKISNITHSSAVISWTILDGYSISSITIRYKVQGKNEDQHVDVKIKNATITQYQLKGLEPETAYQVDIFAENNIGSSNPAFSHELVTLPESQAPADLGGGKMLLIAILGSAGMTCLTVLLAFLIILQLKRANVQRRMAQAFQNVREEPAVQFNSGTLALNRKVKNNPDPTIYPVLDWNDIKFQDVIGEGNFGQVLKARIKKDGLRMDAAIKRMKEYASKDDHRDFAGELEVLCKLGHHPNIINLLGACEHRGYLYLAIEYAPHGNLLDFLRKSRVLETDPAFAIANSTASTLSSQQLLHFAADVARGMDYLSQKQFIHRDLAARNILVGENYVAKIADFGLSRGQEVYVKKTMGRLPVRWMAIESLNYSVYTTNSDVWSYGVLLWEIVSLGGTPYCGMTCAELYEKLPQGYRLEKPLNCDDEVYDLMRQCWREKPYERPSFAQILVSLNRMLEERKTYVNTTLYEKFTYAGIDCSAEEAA
Source text: as §1, §2

[7] = target: Plk1 (Homo sapiens, UniProt P53350); experiment: AlphaScreen kinase assay, Plk1; details: read-out: IC50, activity toward kinase Plk1
Plk1, sequence (P53350 whole entry): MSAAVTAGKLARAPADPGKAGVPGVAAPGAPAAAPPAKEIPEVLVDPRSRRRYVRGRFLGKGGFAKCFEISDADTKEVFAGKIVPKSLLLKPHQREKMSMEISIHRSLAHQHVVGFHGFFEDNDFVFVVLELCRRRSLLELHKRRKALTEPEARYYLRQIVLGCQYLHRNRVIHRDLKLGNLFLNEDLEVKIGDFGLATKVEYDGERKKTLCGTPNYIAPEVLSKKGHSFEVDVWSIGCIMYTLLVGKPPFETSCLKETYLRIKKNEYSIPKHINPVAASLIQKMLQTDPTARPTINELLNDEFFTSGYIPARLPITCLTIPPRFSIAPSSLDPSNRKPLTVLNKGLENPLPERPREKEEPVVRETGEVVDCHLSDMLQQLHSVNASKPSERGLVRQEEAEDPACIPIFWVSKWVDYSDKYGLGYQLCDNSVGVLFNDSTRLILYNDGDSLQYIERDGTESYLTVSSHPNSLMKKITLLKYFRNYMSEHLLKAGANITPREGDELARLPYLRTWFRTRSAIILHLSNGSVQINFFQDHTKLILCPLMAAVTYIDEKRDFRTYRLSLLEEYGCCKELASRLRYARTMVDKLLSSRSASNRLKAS
In short: as §3

[8] = target: T3, Erk2 (Homo sapiens, UniProt P28482); experiment: AlphaScreen kinase assay, Erk2; details: read-out: IC50, activity toward kinase Erk2
T3 construct: P4227.pET15S ERK2/MEK1DD; His6 with thrombin site (N); made in house
T3 sequence (P28482 with tags, fused parts or gaps): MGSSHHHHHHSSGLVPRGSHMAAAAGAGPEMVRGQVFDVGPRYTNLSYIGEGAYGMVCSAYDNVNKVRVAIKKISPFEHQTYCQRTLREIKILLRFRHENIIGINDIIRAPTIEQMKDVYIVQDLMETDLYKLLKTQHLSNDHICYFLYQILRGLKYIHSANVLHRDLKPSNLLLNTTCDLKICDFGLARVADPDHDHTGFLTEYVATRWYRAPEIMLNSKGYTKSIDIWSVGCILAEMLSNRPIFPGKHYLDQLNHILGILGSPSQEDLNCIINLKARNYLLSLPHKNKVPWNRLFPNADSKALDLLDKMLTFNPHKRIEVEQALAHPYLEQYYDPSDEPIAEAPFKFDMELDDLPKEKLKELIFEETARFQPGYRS
Source text: as §1, §2

T1 sequence (P49137 whole entry): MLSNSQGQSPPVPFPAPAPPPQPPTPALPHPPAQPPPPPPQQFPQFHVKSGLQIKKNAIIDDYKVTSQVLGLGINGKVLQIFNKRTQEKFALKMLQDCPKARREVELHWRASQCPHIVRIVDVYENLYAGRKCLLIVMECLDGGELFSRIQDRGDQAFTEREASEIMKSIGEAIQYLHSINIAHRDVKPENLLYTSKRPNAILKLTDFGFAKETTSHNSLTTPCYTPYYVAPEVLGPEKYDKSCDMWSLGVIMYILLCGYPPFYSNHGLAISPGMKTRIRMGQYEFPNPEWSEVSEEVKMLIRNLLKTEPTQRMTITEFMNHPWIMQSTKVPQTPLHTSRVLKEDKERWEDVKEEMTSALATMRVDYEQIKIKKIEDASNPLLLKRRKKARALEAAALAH

- IC50 [1]: ≤ 10 µM
- IC50 [2]: ≤ 10 µM
- IC50 [3]: ≤ 10 µM
SMILES: CCCS(=O)(=O)Nc1ccc(F)c(C(=O)c2c[nH]c3ncccc23)c1F [Compound P-0007, Propane-1-sulfonic acid [2,4-difluoro-3-(1H-pyrrolo[2,3-b]pyridine-3-carbonyl)-phenyl]-amide]

- IC50 [4]: ≤ 10 µM
- IC50 [5]: ≤ 10 µM
- IC50 [2]: ≤ 10 µM
- IC50 [3]: ≤ 10 µM
- IC50 [6]: ≤ 10 µM
SMILES: OCCOc1ccc(F)c(Cc2c[nH]c3ncc(-c4cccnc4)cc23)c1F [Compound P-1394, 2-[2,4-Difluoro-3-(5-pyridin-3-yl-1H-pyrrolo[2,3-b]pyridin-3-ylmethyl)-phenoxy]-ethanol]

- IC50 [7]: ≤ 10 µM
SMILES: O=C(c1cccc(O)c1F)c1c[nH]c2ncc(Br)cc12 [Compound P-0067, (5-bromo-1H-pyrrolo[2,3-b]pyridin-3-yl)-(2-fluoro-3-hydroxy-phenyl)-methanone]

- IC50 [8]: ≤ 10 µM
- IC50 [1]: ≤ 10 µM
SMILES: Cc1ccc(S(=O)(=O)NCc2c[nH]c3ncccc23)cc1 [Compound P-0058]

- IC50 [4]: ≤ 10 µM
- IC50 [5]: ≤ 10 µM
- IC50 [2]: ≤ 10 µM
- IC50 [3]: ≤ 10 µM
- IC50 [6]: ≤ 10 µM
SMILES: CCCS(=O)(=O)Nc1ccc(F)c(C(=O)c2c[nH]c3ncc(OC)cc23)c1F [Compound P-0806, Propane-1-sulfonic acid [2,4-difluoro-3-(5-methoxy-1H-pyrrolo[2,3-b]pyridine-3-carbonyl)-phenyl]-amide]

- IC50 [4]: ≤ 10 µM
- IC50 [3]: ≤ 10 µM
SMILES: CCCCNC(=O)Nc1ccc(F)c(C(=O)c2c[nH]c3ncc(-c4cccnc4)cc23)c1F [Compound P-1318, 1-Butyl-3-[2,4-difluoro-3-(5-pyridin-3-yl-1H-pyrrolo[2,3-b]pyridine-3-carbonyl)-phenyl]-urea]

- IC50 [4]: ≤ 10 µM
- IC50 [5]: ≤ 10 µM
- IC50 [2]: ≤ 10 µM
- IC50 [6]: ≤ 10 µM
SMILES: COc1cc(OC)cc(C(=O)c2c[nH]c3ncc(-c4cccc(NS(C)(=O)=O)c4)cc23)c1 [Compound P-1426, N-{3-[3-(3,5-Dimethoxy-benzoyl)-1H-pyrrolo[2,3-b]pyridin-5-yl]-phenyl}-methanesulfonamide]

- IC50 [7]: ≤ 10 µM
SMILES: Cc1ccccc1C(=O)c1c[nH]c2nccc(-c3cccc(N)c3)c12 [Compound P-0044]

- IC50 [4]: ≤ 10 µM
SMILES: CCCS(=O)(=O)Nc1ccc(F)c(C(=O)c2c[nH]c3ncc(-c4cccnc4)cc23)c1F [Compound P-0088, Propane-1-sulfonic acid [2,4-difluoro-3-(5-pyridin-3-yl-1H-pyrrolo[2,3-b]pyridine-3-carbonyl)-phenyl]-amide]

- IC50 [4]: ≤ 10 µM
SMILES: CCCS(=O)(=O)Nc1ccc(F)c(C(=O)c2c[nH]c3ncc(-c4ccccc4)cc23)c1F [Compound P-0636, Propane-1-sulfonic acid [2,4-difluoro-3-(5-phenyl-1H-pyrrolo[2,3-b]pyridine-3-carbonyl)-phenyl]-amide]

- IC50 [4]: ≤ 10 µM
- IC50 [5]: ≤ 10 µM
- IC50 [6]: ≤ 10 µM
SMILES: CCCC(=O)Nc1ccc(F)c(Cc2c[nH]c3ncc(-c4cccnc4)cc23)c1F [Compound P-1280]

- IC50 [7]: ≤ 10 µM
SMILES: Nc1cccc(-c2ccnc3[nH]cc(C(=O)c4ccccc4F)c23)c1 [Compound P-0022]

- IC50 [1]: ≤ 10 µM
SMILES: Fc1cc(F)cc(-c2ccnc3[nH]cc(Sc4ccccn4)c23)c1 [Compound P-0106]

- IC50 [4]: ≤ 10 µM
SMILES: O=C(Nc1ccc(Cc2c[nH]c3ncccc23)cc1)Nc1cccc(C(F)(F)F)c1 [Compound P-0262, 1-[4-(1H-Pyrrolo[2,3-b]pyridin-3-ylmethyl)-phenyl]-3-(3-trifluoromethyl-phenyl)-urea]

- IC50 [8]: ≤ 10 µM
- IC50 [4]: ≤ 10 µM
- IC50 [5]: ≤ 10 µM
- IC50 [2]: ≤ 10 µM
- IC50 [3]: ≤ 10 µM
- IC50 [6]: ≤ 10 µM
SMILES: COc1cccc(C(=O)c2c[nH]c3ncc(-c4cccc(NC(C)=O)c4)cc23)c1F [Compound P-1336, N-{3-[3-(2-Fluoro-3-methoxy-benzoyl)-1H-pyrrolo[2,3-b]pyridin-5-yl]-phenyl}-acetamide]

- IC50 [7]: ≤ 10 µM
SMILES: Nc1cccc(-c2ccnc3[nH]cc(C(=O)c4cc(F)ccc4F)c23)c1 [Compound P-0046]

- IC50 [8]: ≤ 10 µM
- IC50 [1]: ≤ 10 µM
SMILES: Cn1cc(C(F)(F)F)c(-c2ccc(S(=O)(=O)NCc3c[nH]c4ncccc34)s2)n1 [Compound P-0041]
